According to ChEMBL document CHEMBL1671627, “Increasing trends in antimicrobial resistance among clinically important anaerobes and Bacteroides fragilis isolates causing nosocomial infections: emerging resistance to carbapenems” (2008):
Values after ≈ are worked out from the molar mass of the structure shown.

Experiments:
Format in all cases: functional
Parvimonas micra [1] = assay: Antibacterial activity against beta-lactamase producing Micromonas micros by CLSI agar dilution method
Parvimonas micra [2] = assay: Antibacterial activity against beta-lactamase producing Micromonas micros assessed as resistant isolates by CLSI agar dilution method
Fusobacterium nucleatum [3] = assay: Antibacterial activity against Fusobacterium nucleatum assessed as susceptible isolates by CLSI agar dilution method
Bacteroides fragilis [4] = assay: Antibacterial activity against Bacteroides fragilis assessed as susceptible isolates by CLSI agar dilution method
Bacteroides uniformis = assay: Antibacterial activity against beta-lactamase producing Bacteroides uniformis assessed as susceptible isolates by CLSI agar dilution method
Fusobacterium mortiferum [5] = assay: Antibacterial activity against Fusobacterium mortiferum by CLSI agar dilution method
Finegoldia magna [6] = assay: Antibacterial activity against beta-lactamase producing Finegoldia magna assessed as susceptible isolates by CLSI agar dilution method
[7] = test system: Peptostreptococcus anaerobius; assay: Antibacterial activity against beta-lactamase producing Peptostreptococcus anaerobius assessed as susceptible isolates by CLSI agar dilution method
[8] = test system: Fusobacterium necrophorum; assay: Antibacterial activity against Fusobacterium necrophorum by CLSI agar dilution method
Veillonella parvula = assay: Antibacterial activity against Veillonella parvula by CLSI agar dilution method
Clostridium tertium [9] = assay: Antibacterial activity against beta-lactamase producing Clostridium tertium assessed as resistant isolates by CLSI agar dilution method
[10] = test system: Fusobacterium necrophorum; assay: Antibacterial activity against Fusobacterium necrophorum assessed as susceptible isolates by CLSI agar dilution method
Prevotella bivia = assay: Antibacterial activity against Prevotella bivia assessed as resistant isolates by CLSI agar dilution method
Clostridium septicum [11] = assay: Antibacterial activity against beta-lactamase producing Clostridium septicum assessed as resistant isolates by CLSI agar dilution method
Prevotella intermedia [12] = assay: Antibacterial activity against Prevotella intermedia by CLSI agar dilution method
[13] = test system: Peptoniphilus asaccharolyticus; assay: Antibacterial activity against beta-lactamase producing Peptoniphilus asaccharolyticus assessed as resistant isolates by CLSI agar dilution method
Clostridium septicum [14] = assay: Antibacterial activity against beta-lactamase producing Clostridium septicum assessed as susceptible isolates by CLSI agar dilution method
Bacteroides fragilis [15] = assay: Antibacterial activity against Bacteroides fragilis assessed as resistant isolates by CLSI agar dilution method
[16] = test system: Peptostreptococcus anaerobius; assay: Antibacterial activity against beta-lactamase producing Peptostreptococcus anaerobius assessed as resistant isolates by CLSI agar dilution method
Fusobacterium nucleatum [17] = assay: Antibacterial activity against Fusobacterium nucleatum by CLSI agar dilution method
[18] = test system: Peptostreptococcus anaerobius; assay: Antibacterial activity against beta-lactamase producing Peptostreptococcus anaerobius by CLSI agar dilution method
Finegoldia magna [19] = assay: Antibacterial activity against beta-lactamase producing Finegoldia magna assessed as resistant isolates by CLSI agar dilution method
Prevotella intermedia [20] = assay: Antibacterial activity against Prevotella intermedia assessed as susceptible isolates by CLSI agar dilution method
[21] = test system: Bacteroides thetaiotaomicron; assay: Antibacterial activity against beta-lactamase producing Bacteroides thetaiotaomicron assessed as resistant isolates by CLSI agar dilution method
Clostridium perfringens = assay: microbe, parasite or virus in culture
Clostridium tertium [22] = assay: Antibacterial activity against beta-lactamase producing Clostridium tertium assessed as susceptible isolates by CLSI agar dilution method
Fusobacterium mortiferum [23] = assay: Antibacterial activity against Fusobacterium mortiferum assessed as resistant isolates by CLSI agar dilution method
Bacteroides caccae = assay: Antibacterial activity against beta-lactamase producing Bacteroides caccae by CLSI agar dilution method
[24] = test system: Clostridium paraputrificum; assay: Antibacterial activity against beta-lactamase producing Clostridium paraputrificum assessed as resistant isolates by CLSI agar dilution method
Parvimonas micra [25] = assay: Antibacterial activity against beta-lactamase producing Micromonas micros assessed as susceptible isolates by CLSI agar dilution method
[26] = test system: Bacteroides thetaiotaomicron; assay: Antibacterial activity against beta-lactamase producing Bacteroides thetaiotaomicron by CLSI agar dilution method
Bacteroides fragilis [27] = assay: Antibacterial activity against Bacteroides fragilis by CLSI agar dilution method

Compound: C[C@@H](O)[C@H]1C(=O)N2C(C(=O)O)=C(S[C@@H]3CN[C@H](C(=O)Nc4cccc(C(=O)O)c4)C3)[C@H](C)[C@H]12
- MIC50 (Parvimonas micra [1]): 0.06 µg/mL (≈ 0.126 µM)
- MIC90 (Parvimonas micra [1]): 1 µg/mL (≈ 2.1 µM)
- Activity (Parvimonas micra [2]): 0%
- Activity (Fusobacterium nucleatum [3]): 100%
- Activity (Bacteroides fragilis [4]): 90%
- Activity (Bacteroides uniformis): 92%
- MIC50 (Fusobacterium mortiferum [5]): 0.06 µg/mL (≈ 0.126 µM)
- MIC90 (Fusobacterium mortiferum [5]): 0.12 µg/mL (≈ 0.252 µM)
- Activity (Finegoldia magna [6]): 100%
- Activity [7]: 100%
- MIC50 [8]: 0.06 µg/mL (≈ 0.126 µM)
- MIC90 [8]: 0.12 µg/mL (≈ 0.252 µM)
- MIC (Veillonella parvula): 0.03 µg/mL (≈ 0.0631 µM)
- Activity (Clostridium tertium [9]): 0%
- Activity [10]: 100%
- Activity (Prevotella bivia): 0%
- Activity (Clostridium septicum [11]): 0%
- MIC50 (Prevotella intermedia [12]): 0.12 µg/mL (≈ 0.252 µM)
- MIC90 (Prevotella intermedia [12]): 0.5 µg/mL (≈ 1.05 µM)
- Activity [13]: 0%
- Activity (Clostridium septicum [14]): 96%
- Activity (Bacteroides fragilis [15]): 5%
- Activity [16]: 0%
- MIC50 (Fusobacterium nucleatum [17]): 0.06 µg/mL (≈ 0.126 µM)
- MIC90 (Fusobacterium nucleatum [17]): 0.12 µg/mL (≈ 0.252 µM)
- MIC50 [18]: 0.06 µg/mL (≈ 0.126 µM)
- MIC90 [18]: 1 µg/mL (≈ 2.1 µM)
- Activity (Finegoldia magna [19]): 0%
- Activity (Prevotella intermedia [20]): 100%
- Activity [21]: 3%
- MIC50 (Clostridium perfringens): 0.12 µg/mL (≈ 0.252 µM)
- MIC90 (Clostridium perfringens): 4 µg/mL (≈ 8.41 µM)
- Activity (Clostridium tertium [22]): 96%
- Activity (Fusobacterium mortiferum [23]): 0%
- MIC50 (Bacteroides caccae): 1 µg/mL (≈ 2.1 µM)
- MIC90 (Bacteroides caccae): 2 µg/mL (≈ 4.21 µM)
- Activity [24]: 0%
- Activity (Parvimonas micra [25]): 100%
- MIC50 [26]: 1 µg/mL (≈ 2.1 µM)
- MIC90 [26]: 4 µg/mL (≈ 8.41 µM)
- MIC50 (Bacteroides fragilis [27]): 0.25 µg/mL (≈ 0.526 µM)
- MIC90 (Bacteroides fragilis [27]): 4 µg/mL (≈ 8.41 µM)
